# Test results published in the NIST ThermoML archive (doi:10.1021/je050483s).
# ± gives the expanded uncertainty stated by the source.
# Experiments:
# [1] = xn = mol fraction of the nth substance listed; conditions: 101 kPa, Liquid
# [2] = 101 kPa, Liquid
smiles,measurement,setting,value
O [water] + C1CCNC1,speed of sound,"[1]; 313 K, x2 = 0",1529 ± 1.5 m/s
C1CCNCC1 [piperidine],speed of sound,[2]; 293 K,1384.4 ± 1.9 m/s
same,speed of sound,[2]; 303 K,1342.3 ± 1.8 m/s
same,speed of sound,[2]; 313 K,1299.9 ± 1.8 m/s
same,speed of sound,[2]; 323 K,1257.4 ± 1.8 m/s
C1CCNCC1 [piperidine] + O,speed of sound,"[1]; 293 K, x1 = 0.006",1506.5 ± 1.8 m/s
same,speed of sound,"[1]; 293 K, x1 = 0.011",1531.1 ± 1.8 m/s
same,speed of sound,"[1]; 293 K, x1 = 0.028",1590.1 ± 1.9 m/s
same,speed of sound,"[1]; 293 K, x1 = 0.057",1596.3 ± 1.9 m/s
same,speed of sound,"[1]; 293 K, x1 = 0.099",1593.6 ± 1.9 m/s
same,speed of sound,"[1]; 293 K, x1 = 0.18",1575.4 ± 1.9 m/s
same,speed of sound,"[1]; 293 K, x1 = 0.267",1550.2 ± 1.9 m/s
same,speed of sound,"[1]; 293 K, x1 = 0.354",1525.1 ± 1.9 m/s
same,speed of sound,"[1]; 293 K, x1 = 0.439",1499.8 ± 1.9 m/s
same,speed of sound,"[1]; 293 K, x1 = 0.523",1477 ± 1.9 m/s
same,speed of sound,"[1]; 293 K, x1 = 0.646",1445.3 ± 1.9 m/s
same,speed of sound,"[1]; 293 K, x1 = 0.846",1406.2 ± 1.9 m/s
same,speed of sound,"[1]; 293 K, x1 = 1",1384.4 ± 1.9 m/s
same,speed of sound,"[1]; 303 K, x1 = 0.006",1528.7 ± 1.8 m/s
same,speed of sound,"[1]; 303 K, x1 = 0.011",1548.7 ± 1.8 m/s
same,speed of sound,"[1]; 303 K, x1 = 0.028",1588.3 ± 1.9 m/s
same,speed of sound,"[1]; 303 K, x1 = 0.057",1587.1 ± 1.9 m/s
same,speed of sound,"[1]; 303 K, x1 = 0.099",1576.5 ± 1.9 m/s
same,speed of sound,"[1]; 303 K, x1 = 0.18",1547.9 ± 1.9 m/s
same,speed of sound,"[1]; 303 K, x1 = 0.267",1517.2 ± 1.9 m/s
same,speed of sound,"[1]; 303 K, x1 = 0.354",1489.1 ± 1.9 m/s
same,speed of sound,"[1]; 303 K, x1 = 0.439",1461.1 ± 1.8 m/s
same,speed of sound,"[1]; 303 K, x1 = 0.523",1438 ± 1.8 m/s
same,speed of sound,"[1]; 303 K, x1 = 0.646",1405.2 ± 1.8 m/s
same,speed of sound,"[1]; 303 K, x1 = 0.846",1365.1 ± 1.8 m/s
same,speed of sound,"[1]; 303 K, x1 = 1",1342.3 ± 1.8 m/s
same,speed of sound,"[1]; 313 K, x1 = 0.006",1544.8 ± 1.8 m/s
same,speed of sound,"[1]; 313 K, x1 = 0.011",1560.4 ± 1.8 m/s
same,speed of sound,"[1]; 313 K, x1 = 0.028",1584.5 ± 1.9 m/s
same,speed of sound,"[1]; 313 K, x1 = 0.057",1576 ± 1.9 m/s
same,speed of sound,"[1]; 313 K, x1 = 0.099",1557.5 ± 1.8 m/s
same,speed of sound,"[1]; 313 K, x1 = 0.18",1519.2 ± 1.8 m/s
same,speed of sound,"[1]; 313 K, x1 = 0.267",1483.5 ± 1.8 m/s
same,speed of sound,"[1]; 313 K, x1 = 0.354",1452.5 ± 1.8 m/s
same,speed of sound,"[1]; 313 K, x1 = 0.439",1424 ± 1.8 m/s
same,speed of sound,"[1]; 313 K, x1 = 0.523",1398.6 ± 1.8 m/s
same,speed of sound,"[1]; 313 K, x1 = 0.646",1364.8 ± 1.8 m/s
same,speed of sound,"[1]; 313 K, x1 = 0.846",1323.6 ± 1.8 m/s
same,speed of sound,"[1]; 313 K, x1 = 1",1299.9 ± 1.8 m/s
same,speed of sound,"[1]; 323 K, x1 = 0.006",1555.1 ± 1.8 m/s
same,speed of sound,"[1]; 323 K, x1 = 0.011",1566.8 ± 1.8 m/s
same,speed of sound,"[1]; 323 K, x1 = 0.028",1578.3 ± 1.9 m/s
same,speed of sound,"[1]; 323 K, x1 = 0.057",1562.7 ± 1.8 m/s
same,speed of sound,"[1]; 323 K, x1 = 0.099",1536.6 ± 1.8 m/s
same,speed of sound,"[1]; 323 K, x1 = 0.18",1489.3 ± 1.8 m/s
same,speed of sound,"[1]; 323 K, x1 = 0.267",1449 ± 1.8 m/s
same,speed of sound,"[1]; 323 K, x1 = 0.354",1415.4 ± 1.8 m/s
same,speed of sound,"[1]; 323 K, x1 = 0.439",1384.9 ± 1.8 m/s
same,speed of sound,"[1]; 323 K, x1 = 0.523",1358.9 ± 1.8 m/s
same,speed of sound,"[1]; 323 K, x1 = 0.646",1324.2 ± 1.8 m/s
same,speed of sound,"[1]; 323 K, x1 = 0.846",1282 ± 1.8 m/s
same,speed of sound,"[1]; 323 K, x1 = 1",1257.4 ± 1.8 m/s
O [water] + C1CCNCC1,speed of sound,"[1]; 313 K, x2 = 0",1529 ± 1.8 m/s
C1CCNC1 [pyrrolidine],speed of sound,[2]; 293 K,1389.4 ± 1.8 m/s
same,speed of sound,[2]; 303 K,1348 ± 1.8 m/s
same,speed of sound,[2]; 313 K,1305.8 ± 1.7 m/s
same,speed of sound,[2]; 323 K,1263 ± 1.7 m/s
C1CCNC1 [pyrrolidine] + O,speed of sound,"[1]; 293 K, x1 = 0.006",1501.6 ± 1.5 m/s
same,speed of sound,"[1]; 293 K, x1 = 0.01",1517.1 ± 1.5 m/s
same,speed of sound,"[1]; 293 K, x1 = 0.022",1557.9 ± 1.5 m/s
same,speed of sound,"[1]; 293 K, x1 = 0.068",1650.5 ± 1.6 m/s
same,speed of sound,"[1]; 293 K, x1 = 0.116",1654.8 ± 1.6 m/s
same,speed of sound,"[1]; 293 K, x1 = 0.208",1626.3 ± 1.6 m/s
same,speed of sound,"[1]; 293 K, x1 = 0.304",1589.8 ± 1.6 m/s
same,speed of sound,"[1]; 293 K, x1 = 0.396",1556.7 ± 1.6 m/s
same,speed of sound,"[1]; 293 K, x1 = 0.483",1528.8 ± 1.6 m/s
same,speed of sound,"[1]; 293 K, x1 = 0.567",1500.3 ± 1.7 m/s
same,speed of sound,"[1]; 293 K, x1 = 0.686",1467.5 ± 1.7 m/s
same,speed of sound,"[1]; 293 K, x1 = 0.868",1416.6 ± 1.7 m/s
same,speed of sound,"[1]; 293 K, x1 = 1",1389.4 ± 1.8 m/s
same,speed of sound,"[1]; 303 K, x1 = 0.006",1525.2 ± 1.5 m/s
same,speed of sound,"[1]; 303 K, x1 = 0.01",1537.1 ± 1.5 m/s
same,speed of sound,"[1]; 303 K, x1 = 0.022",1569.8 ± 1.5 m/s
same,speed of sound,"[1]; 303 K, x1 = 0.068",1635.1 ± 1.6 m/s
same,speed of sound,"[1]; 303 K, x1 = 0.116",1631.8 ± 1.6 m/s
same,speed of sound,"[1]; 303 K, x1 = 0.208",1596.4 ± 1.6 m/s
same,speed of sound,"[1]; 303 K, x1 = 0.304",1555.3 ± 1.6 m/s
same,speed of sound,"[1]; 303 K, x1 = 0.396",1519.5 ± 1.6 m/s
same,speed of sound,"[1]; 303 K, x1 = 0.483",1489.9 ± 1.6 m/s
same,speed of sound,"[1]; 303 K, x1 = 0.567",1458.9 ± 1.6 m/s
same,speed of sound,"[1]; 303 K, x1 = 0.686",1426.8 ± 1.6 m/s
same,speed of sound,"[1]; 303 K, x1 = 0.868",1375.5 ± 1.7 m/s
same,speed of sound,"[1]; 303 K, x1 = 1",1348 ± 1.8 m/s
same,speed of sound,"[1]; 313 K, x1 = 0.006",1541.5 ± 1.5 m/s
same,speed of sound,"[1]; 313 K, x1 = 0.01",1551.1 ± 1.5 m/s
same,speed of sound,"[1]; 313 K, x1 = 0.022",1576.6 ± 1.5 m/s
same,speed of sound,"[1]; 313 K, x1 = 0.068",1619.3 ± 1.6 m/s
same,speed of sound,"[1]; 313 K, x1 = 0.116",1608 ± 1.6 m/s
same,speed of sound,"[1]; 313 K, x1 = 0.208",1565.5 ± 1.6 m/s
same,speed of sound,"[1]; 313 K, x1 = 0.304",1520 ± 1.6 m/s
same,speed of sound,"[1]; 313 K, x1 = 0.396",1481.6 ± 1.6 m/s
same,speed of sound,"[1]; 313 K, x1 = 0.483",1450.5 ± 1.6 m/s
same,speed of sound,"[1]; 313 K, x1 = 0.567",1422.2 ± 1.6 m/s
same,speed of sound,"[1]; 313 K, x1 = 0.686",1385.6 ± 1.6 m/s
same,speed of sound,"[1]; 313 K, x1 = 0.868",1333.8 ± 1.7 m/s
same,speed of sound,"[1]; 313 K, x1 = 1",1305.8 ± 1.7 m/s
same,speed of sound,"[1]; 323 K, x1 = 0.006",1552.2 ± 1.5 m/s
same,speed of sound,"[1]; 323 K, x1 = 0.01",1559.7 ± 1.5 m/s
same,speed of sound,"[1]; 323 K, x1 = 0.022",1578.7 ± 1.5 m/s
same,speed of sound,"[1]; 323 K, x1 = 0.068",1602.3 ± 1.6 m/s
same,speed of sound,"[1]; 323 K, x1 = 0.116",1583.2 ± 1.6 m/s
same,speed of sound,"[1]; 323 K, x1 = 0.208",1533.5 ± 1.6 m/s
same,speed of sound,"[1]; 323 K, x1 = 0.304",1483.9 ± 1.6 m/s
same,speed of sound,"[1]; 323 K, x1 = 0.396",1443 ± 1.6 m/s
same,speed of sound,"[1]; 323 K, x1 = 0.483",1410.5 ± 1.6 m/s
same,speed of sound,"[1]; 323 K, x1 = 0.567",1377.7 ± 1.6 m/s
same,speed of sound,"[1]; 323 K, x1 = 0.686",1344 ± 1.6 m/s
same,speed of sound,"[1]; 323 K, x1 = 0.868",1291.7 ± 1.6 m/s
same,speed of sound,"[1]; 323 K, x1 = 1",1263 ± 1.7 m/s
